# Test results as given in publication PMC8620685, “Effect of Selected Silyl Groups on the Anticancer Activity of 3,4-Dibromo-5-Hydroxy-Furan-2(5H)-One Derivatives” (Pharmaceuticals, 2021).
# Where two headings read alike, the source gives them in different places.
# Tests used:
# U2OS = assay: MTT assay, U2OS; format: cell-based; conditions: Homo sapiens, MTT, 72 h incubation, read-out: IC50 (cytotoxicity), U2OS
# Experimental: (§1) The in vitro antitumor activities of the MBA and its derivatives (Table 2) were assayed against a panel of human cancer cell lines (HCT116, HCT-116 ^−/−p53, HT-29, MCF-7, SJSA-1, U2OS, HepG2 and Hep3B) using the MTT assay. As a reference drug we used 5-fluorouracil (5-FU). […] On the basis of in vitro antiproliferative activities, compounds 3b and 3c were selected for further mechanistic studies in the HCT-116 cell line.
# (§2) Human cells lines: colon cancer (HCT-116 wt, HT-29), non-small lung carcinoma (A549), and bronchial epithelial cells (BEAS-2B) were obtained from American Type Culture Collection (ATCC, Manassas, VA, USA). Isogenic cell line HCT 116 p53^−/− (deleted both p53 alleles) were a gift from Dr. Bert Vogelstein. Other cell lines, namely MCF-7, SJSA-1, U2OS, HepG2, and Hep3B were received from the collection stored at Centre of Biotechnology of Silesian University of Technology. All cells were grown in DMEM with a high glucose medium (Sigma-Aldrich, Taufkirchen, Germany) supplemented with 10% (v/v) inactivated fetal bovine serum (FBS) (EURx, Gdańsk, Poland) and 1% antibiotics (10,000 μg/mL of streptomycin and 10,000 units/ml of penicillin) (Sigma-Aldrich, Taufkirchen, Germany) at 37 °C in humidified 5% CO2. The maximum concentration of DMSO in the culture media was 0.4%.
# (§3) 5 × 10^3 cells per well for the MCF-7 cell line and 2.5 × 10^3 cells per well for the other cell lines were seeded in 96-well plates to adhere for 24 h. Afterward, the cells were treated with tested compounds. After 72 hours of incubation, 50 μL 0.5 mg/ml solution of MTT (3-(4,5-dimethylthiazol-2-yl)-2,5-diphenyl-2H-tetrazolium bromide) were added to each well and the plates were incubated for 3 h at 37 °C. Next, the MTT solution was removed from the plates and formed formazan crystals were dissolved in 2-propanol (Avantor Performance Materials, Gliwice, Poland) containing 0.04 M hydrochloric acid (Avantor Performance Materials, Gliwice, Poland). The absorbance was measured at 570 nm wavelength using a multiwall plate reader (BioTek, Winooski, VT, USA). The experiment was performed at a minimum of 3 independent replicates. Cell viability was set as a percentage versus vehicle control. IC50 was defined as a concentration of a drug that decreased cell viability by 50% relative to the untreated control.
# MCF-7 = assay: MTT assay, MCF-7; format: cell-based, human
# Experimental: as §1, §2, §3
# HCT 116 p53−/− = assay: MTT assay, HCT 116 p53−/−; format: cell-based; conditions: Homo sapiens, read-out: IC50 (cytotoxicity), HCT 116 p53−/−
# Experimental: as §1, §2, §3
# HT-29 = assay: MTT assay, HT-29; format: cell-based; conditions: Homo sapiens, read-out: IC50 (cytotoxicity), HT-29
# Experimental: as §1, §2, §3
# HCT 116 wt = assay: MTT assay, HCT 116 wt; format: cell-based, human
# Experimental: as §1, §2, §3
# SJSA-1 = assay: MTT assay, SJSA-1; format: cell-based; conditions: Homo sapiens, SJSA-1; MTT, 72 h incubation; read-out: IC50 (cytotoxicity), SJSA-1
# Experimental: as §1, §2, §3
# Hep3B = assay: MTT assay, Hep3B; format: cell-based; conditions: Homo sapiens, MTT, 72 h incubation, read-out: IC50 (cytotoxicity), Hep3B
# Experimental: as §1, §2, §3
# A549 = assay: MTT assay, NSCLC cell line A549; format: cell-based, human; conditions: for IC50: Homo sapiens, A549, MTT, 72 h incubation, read-out: IC50 (cytotoxicity), A549; for SI: selectivity, A549 versus BEAS-2B
# Experimental: (§4) One of the major drawbacks of currently used anticancer drugs is their low selectivity, which often leads to undesired side effects that may be harmful to patients. Overcoming this challenging task requires special attention at the pre-clinical development level. To check whether silyl group incorporation may affect the selectivity of compounds towards cancer cells, MBA and all its new silyl derivatives were tested for their efficacy on noncancerous BEAS-2B and cancerous A549 cells line. […] In contrast, compounds 3a and 3d were more cytotoxic to A549 cells with SI values 6.05 and 1.72, respectively. Strikingly, those two compounds have similar cLogP values 3.08 and 3.22, respectively.
# as §2, §3
# [1] = MTT assay, normal bronchial epithelium cell line BEAS-2B; format: cell-based; conditions: human, BEAS-2B cells (noncancerous bronchial epithelial cells); MTT, 72 h incubation; noncancerous cells; read-out: IC50 (cytotoxicity), BEAS-2B
# Experimental: as §4, §2, §3
# HepG2 = assay: MTT assay, HepG2; format: cell-based; conditions: Homo sapiens, HepG2; MTT, 72 h incubation; read-out: IC50 (cytotoxicity), HepG2
# Experimental: as §1, §2
# as §3, with “The experiment was performed at a minimum of 3 independent replicates. Cell viability was set as a percentage versus vehicle control. IC50 was defined as a concentration of a drug that decreased cell viability by 50% relative to the untreated control.” left out
# HCT-116 cells = assay: Annexin V-FITC/PI apoptosis assay; format: cell-based, human; conditions: HCT-116, statement in discussion
# Experimental: To verify this thesis, we utilized annexin-V/PI double staining of cells, which were subsequently subjected to flow cytometric analysis.
# The HCT 116 cells were seeded in 6-well plate (Nunc, ThermoFisher, Waltham, MA, USA) at a density of 5 × 10^4 cells/well and allowed to attach. After 24 h the medium was replaced with tested compounds. The cells were then incubated for 24 h at 37 °C. Next, both floating and adherent cells were harvested and centrifuged at 600× g. The cells were washed with PBS (phosphate buffered saline) (Sigma-Aldrich, Taufkirchen, Germany) and we followed instructions from the manufacturer of the Annexin V-FITC Apoptosis Detection Kit (Biotool, Jupiter, FL, USA). Fluorescence was measured using a Becton Dickinson FACS Aria III sorter (BD Company, San Diego, CA, USA). Experiments were repeated at least twice. Data were analyzed using FCE Express 7 Software (DeNovo Software, Pasadena, CA, USA).
# [2] = Homo sapiens, MCF7, 72 h, read-out: IC50 (cytotoxicity), MCF-7, MTT, 72 h incubation
# [3] = Homo sapiens, HCT-116, 72 h, read-out: IC50 (cytotoxicity), HCT 116 wt, MTT, 72 h incubation
SMILES,IC50 (U2OS),"IC50 (MCF-7; Homo sapiens, MCF7, 72 h, MTT, 72 h incubation, read-out: IC50 (cytotoxicity), MCF-7)","IC50 (HCT 116 p53−/−; HCT-116, MTT, 72 h incubation)","IC50 (HT-29; HT-29, MTT, 72 h incubation)","IC50 (HCT 116 wt; Homo sapiens, HCT-116, 72 h, MTT, 72 h incubation, read-out: IC50 (cytotoxicity), HCT 116 wt)",IC50 (SJSA-1),IC50 (Hep3B),IC50 (MCF-7; [2]),"IC50 (HCT 116 p53−/−; HCT-116, 72 h)",IC50 (A549),SI (A549),"IC50 (HT-29; HT-29, 72 h)",IC50 at 72 h [1],IC50 (HepG2),induction of apoptosis / cell death in HCT-116 (HCT-116 cells),IC50 (HCT 116 wt; [3]),"IC50 (HCT 116 wt; human, 72 h)","IC50 (MCF-7; human, 72 h)"
"O=c1[nH]cc(F)c(=O)[nH]1 [5FU, 5-fluorouracil, reference compound]",89.8 ± 2.1 µM,29.7 ± 1.4 µM,13.4 ± 1.5 µM,32.8 ± 4.7 µM,6.3 ± 1 µM,–,–,–,–,–,–,–,–,–,–,–,–,–
"CC(C)(C)[Si](C)(C)OC1OC(=O)C(Br)=C1Br (stereo not drawn) [Compound 3a, 3,4-Dibromo-5-(tert-butyldimethylsilyloxy)-furan-2(5H)-one]",–,–,–,–,–,196 ± 5.4 µM,135 ± 6.1 µM,186 ± 14.2 µM,21.4 ± 3.4 µM,23.4 ± 6.6 µM,6.05,88.7 ± 8.2 µM,142 ± 23.1 µM,135 ± 6 µM,failed to induce apoptosis,1.4 µM,1.3 ± 0.12 µM,–
"CC[Si](CC)(CC)OC1OC(=O)C(Br)=C1Br (stereo not drawn) [Compound 3d, 3,4-Dibromo-5-(trietylsilyloxy)-furan-2(5H)-one]",–,–,–,–,–,–,–,89 µM,4.4 ± 0.4 µM,4.7 ± 0.1 µM,1.72,–,8.1 ± 1.2 µM,–,–,1.6 ± 0.4 µM,–,89.2 ± 6 µM
